The source of these data is PMC4079550 (Theriogenology, 2014).

For data set [1], the system named is male C57/Bl6 mice. Kind of data set: Effect on spermatogenesis in vivo. Details: species or system mouse.
Another data set concerns murine testicular cells. Briefly: Microscopic appearance of testicular cell cultures. Format: cell-based, Sprague–Dawley rat. As to conditions: 20 μM, over 72 hours, Figure 2.
Data set [2] relates to male C57/Bl6 mice. Briefly: Testicular histology after treatment in vivo. The settings on record: single dose, Bouin's fixative, Hematoxylin-Periodic acid Schiff's stain, Figure 3. Details: species or system mouse.
The next data set deals with Sertoli cells. Briefly: Anti-Mullerian hormone. The settings on record: 20 uM, after 24 and 48 hours of incubation; bright staining in control cultures. In kind it is cell-based, Sprague–Dawley rat.
Data set [3] concerns male C57/Bl6 mice. Kind of data set: Systemic toxicity: complete blood counts and routine chemistries. Format: in vivo, mouse. As to conditions: melphalan alone 7.5 mg/kg ip once, data not shown.
The next data set deals with mouse fibroblasts. Briefly: LDH release cytotoxicity experiment using mouse fibroblasts. In kind it is cell-based. The settings on record: at 72 hours, P<0.01 between the two.
The subject of the next data set is mice. The settings on record: ref [24]; cited from earlier work.
Where [4] appears, read: melphalan 7.5 mg/kg ip once on day 0, Week 4, n = 3 mice.
[5] abbreviates: melphalan 7.5 mg/kg ip once on day 0, Week 12, n = 3 mice.

`N[C@@H](Cc1ccc(N(CCCl)CCCl)cc1)C(=O)O` [Melphalan]: in the data set with male C57/Bl6 mice [1] (setting [4]), the “Daily Sperm Production/testis” value was 0.515±0.013 ×10^6, the Spermatids/Testis was 2.5±0.06 ×10^6 and the “Spermatids/mg of Tissue” value was 0.054±0.003 ×10^6. In addition, in the data set with male C57/Bl6 mice [1] (setting [5]), the “Daily Sperm Production/testis” value is given as 1.9±0.12 ×10^6, the Spermatids/Testis is listed as 9.2±0.57 ×10^6 and the “Spermatids/mg of Tissue” value is 0.106±0.10 ×10^6. Further, the “Microscopic appearance of cultures compared to control cultures” value in the data set on murine testicular cells is given as “marked cell death”. Besides, the “Testis histology at four weeks” value in the data set with male C57/Bl6 mice [2] is “Marked loss of spermatocytes and spermatids”. In addition, in the data set with Sertoli cells, the “Staining for AMH (marker of Sertoli cells)” value is “very little”. Moreover, the “Lymphocytes count at 4 weeks” value in the data set with male C57/Bl6 mice [3] (4 weeks) is recorded as “slight, non-significant reduction”. Besides, in the data set with male C57/Bl6 mice [3] (12 weeks), the “Lymphocyte count at 12 weeks” value was “normal”. Also, the LDH release in the data set with mouse fibroblasts is listed as 20 % of maximal LDH release.
Consider `NNC(=O)c1nn(Cc2ccc(Cl)cc2Cl)c2ccccc12` [adjudin], for which the “Increase of contraceptive efficacy by conjugation to FSHβ” value with mice is given as 10,000 fold.
